Structures can show the parent of a compound that is named as a salt.
What was measured:
thrombin = thrombin (Homo sapiens, UniProt P00734); test: In vitro selectivity, human proteases: thrombin; assay type: biochemical; conditions: up to 100 μM
Excerpt: In order to determine the in vitro selectivity of 1-[(3-cyano-pyridin-2-yl)methyl]-3-methyl-7-(2-butyn-1-yl)-8-[3-(R)-amino-piperidin-1-yl]-xanthine, the ability of this compound to inhibit a number of human proteases was investigated as described in Thomas et al. (2008), J. Pharmacol. Exp. Ther., vol. 325, p. 175-182, chapter In vitro DPP-4 Inhibition Assay, p. 176.

blood glucose = test: Glucose monitoring in obese/non-obese cats, 7 days once daily dosing; assay type: in vivo, cat; conditions: 9 mg once daily 7 days; for Glucose, Max / Glucose, Mean / Glucose, Median / Glucose, Min: all 14 obese and non-obese cats, 168 hour period
Excerpt: The aim of this exploratory, randomized, placebo controlled crossover study was to investigate the effect of 1-[(3-cyano-pyridin-2-yl)methyl]-3-methyl-7-(2-butyn-1-yl)-8-[3-(R)-amino-piperidin-1-yl]-xanthine monohydrochloride on DPP IV activity and on glucose concentrations in obese and non-obese cats after repeated oral administration over seven days.
Fourteen clinically healthy male and female (8 obese and 6 non-obese) purpose-bred cats were used in this study. The animals were randomly allocated to two groups of cats, obese and non-obese, and treated in a cross-over design with 9 mg 1-[(3-cyano-pyridin-2-yl)methyl]-3-methyl-7-(2-butyn-1-yl)-8-[3-(R)-amino-piperidin-1-yl]-xanthine monohydrochloride or placebo, once daily for 7 days, with a following wash-out period of 21 days.
Cats were fed once daily 40 min after administration of the compound or the placebo, respectively.
To allow a Continuous glucose monitoring (CGM) a Continuous glucose monitoring system (CGMS) was applied. To this end, on day 1 a Medtronic continuous glucose monitoring sensor (Guardian system; Medtronic Minimed, Northridge, Calif., USA) was placed interstitially. The skin was shaved, and then wiped several times with 70% alcohol. The sensor was inserted into the skin and secured to the skin with a cover provided by Medtronics, and Elasticon. The CGMS was calibrated 2 times daily using a glucometer. When a sensor became non-functional, a new sensor was placed. The sensors were placed between the shoulder blades. Data were recalled via a wireless system.
Also blood samples for were taken before and 6, 12, 24, 64, and 168 hours (3 ml each) after oral administration of the test compound or the placebo. Blood samples for the calibration of the CGMS were taken at least twice daily from day 1 to day 7 approximately twelve hours apart (0.2 ml of blood each time). Glucose measurements were performed using a glucometer (Presto WaveSense) and also a colorimetric glucose oxidase method (Genzyme Diagnostics PEI Incorporated; Charlottetown, Canada), reference method, at appropriate time points (0.2 ml each time; see results section). Interstitial glucose concentrations were followed with the continuous glucose monitoring system. After 7 days, the CGMS was removed.
The measured mean, median, min, and max glucose values for all 14 cats during a 168 hour testing period using the three glucose measurement methods are shown in Table 9.

plasma DPP-4 = target: T1, plasma DPP-4 (Felis catus, UniProt Q9N2I7); test: Inhibition of DPP-4 in cat plasma (in vitro); assay type: biochemical
T1 construct: from tissue; host or cells: cat plasma (3 cats), diluted 70-fold
T1 sequence (Q9N2I7 38-765 limits assumed): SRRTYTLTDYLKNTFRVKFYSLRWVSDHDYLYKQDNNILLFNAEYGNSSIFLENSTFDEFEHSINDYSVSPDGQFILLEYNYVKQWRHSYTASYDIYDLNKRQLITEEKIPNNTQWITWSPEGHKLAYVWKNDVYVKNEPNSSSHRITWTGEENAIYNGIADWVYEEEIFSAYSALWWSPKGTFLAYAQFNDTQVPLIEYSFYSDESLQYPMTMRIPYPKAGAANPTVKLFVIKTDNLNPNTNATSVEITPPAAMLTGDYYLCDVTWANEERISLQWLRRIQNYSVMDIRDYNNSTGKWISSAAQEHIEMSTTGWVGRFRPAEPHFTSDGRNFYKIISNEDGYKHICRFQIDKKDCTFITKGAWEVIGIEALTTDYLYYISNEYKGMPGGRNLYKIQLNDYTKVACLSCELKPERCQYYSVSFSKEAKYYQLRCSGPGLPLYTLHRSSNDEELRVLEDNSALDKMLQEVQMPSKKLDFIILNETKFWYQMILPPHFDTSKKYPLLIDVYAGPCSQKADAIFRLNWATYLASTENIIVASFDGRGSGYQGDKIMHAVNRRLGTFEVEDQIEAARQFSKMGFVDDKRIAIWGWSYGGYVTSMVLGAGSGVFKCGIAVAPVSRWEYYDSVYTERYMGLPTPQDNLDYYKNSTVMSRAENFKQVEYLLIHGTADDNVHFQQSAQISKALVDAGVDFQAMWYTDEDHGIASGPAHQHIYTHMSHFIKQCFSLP
Procedure: Plasma obtained from 3 different cats and one Wistar rat as control were each incubated with a range of concentrations of 1-[(3-cyano-pyridin-2-yl)methyl]-3-methyl-7-(2-butyn-1-yl)-8-[3-(R)-amino-piperidin-1-yl]-xanthine monohydrochloride. Plasma DPP-4 activity was measured in the following way (which is also described in Eckhard et al. (2007), J. Med. Chem., Vol. 50, 6450-6453, Supporting Information).
Rat and cat plasma was used for ex vivo measurement of DDP-4 activity. Blood was collected in EDTA tubes and subjected to centrifugation. The resultant supernatant was aliquoted and frozen. Plasma DPP-4 activity was assayed after dilution (140-fold for rat plasma; 70-fold for cat plasma) with assay buffer (100 mM Tris-HCl, 100 mM NaCl, pH 7.8; compound stock solutions in dimethylsulfoxide (DMSO), final DMSO concentration in the assay 1%) prior to use.
The assay itself was initiated by mixing 50 μl of diluted plasma with 50 μl of diluted substrate (Ala-Pro-AFC) and performed in black flat-bottom 96-well plates. The plates were then incubated at room temperature for 1 h and fluorescence was measured at excitation/emission wavelengths of 405/535 nm. Data analysis was performed by calculating the fluorescence in the presence of the test compound compared to the fluorescence of the vehicle control after subtracting the background fluorescence.
From a plot of concentration against activity (equivalent to fluorescence units) kinetic data could be collected, e.g. the half-maximal inhibitory concentration (IC50) of the tested compound in the different animals, which data are given in the following Table 2.

diabetic ZDF rats = test: Delayed OGTT in diabetic ZDF rats; assay type: in vivo, rat; conditions: 1 mg/kg 16 hours before the test
Procedure: A delayed oral glucose tolerance test (OGTT) was applied to diabetic db/db mice and diabetic ZDF rats, as describes in the following.
Male Zucker Diabetic Fatty (ZDF) rats (ZDF/Crl-Leprfa) were obtained from Charles River (USA). Animals were fed ad libitum with a special pelleted diet (Diet No. 2437 [containing 4.5% sucrose], Provimi Kliba, Switzerland) and had free access to water. Animals were housed in groups with a 12 h/12 h light/dark cycle (lights out between 6 p.m. and 6 a.m.). The rats were used for the experiments at 12 weeks of age.
The day before the OGTT, a blood sample from db/db mice or ZDF rats fasted for 2 hours was obtained by cutting the tip of the tail without anaesthesia and the animals were randomized for glucose (n=7 per group). The animals were fed again for 2 hours and then orally administered with either vehicle or 1-[(3-cyano-pyridin-2-yl)methyl]-3-methyl-7-(2-butyn-1-yl)-8-[3-(R)-amino-piperidin-1-yl]-xanthine monohydrochloride at doses between 0.3 and 3 mg/kg bw. A basal blood sample (pre-load) was obtained the next morning after overnight fasting for 16 hours by cutting the tip of the tail without anaesthesia. […] Additional blood samples were taken from the tip of the tail 30 min, 60 min, 90 min, 120 min, and 180 min after the glucose load, and blood glucose was measured. […]

[1] = Glucose oxidase (reference method)

In the case of `CC#CCn1c(N2CCC[C@@H](N)C2)nc2c1c(=O)n(Cc1ncccc1C#N)c(=O)n2C` [1-[(3-cyano-pyridin-2-yl)methyl]-3-methyl-7-(2-butyn-1-yl)-8-[3-(R)-amino-piperidin-1-yl]-xanthine monohydrochloride], the “inhibitory effect on thrombin” value (thrombin) is reported as “did not exert any inhibitory effect”, the “Glucose, Max” value (blood glucose; CGM) is reported as 126 mg/dL and the “Glucose, Mean” value (blood glucose; CGM) is reported as 94 mg/dL. For the same compound, the “Glucose, Median” value (blood glucose; CGM) was 93 mg/dL, the “Glucose, Min” value (blood glucose; CGM) was 66 mg/dL and the “Glucose, Max” value (blood glucose; Glucometer) was 131 mg/dL. For the same compound, the “Glucose, Mean” value (blood glucose; Glucometer) was 103 mg/dL, the “Glucose, Median” value (blood glucose; Glucometer) was 101 mg/dL and the “Glucose, Min” value (blood glucose; Glucometer) was 79 mg/dL. For the same compound, the “Glucose, Max” value (blood glucose; [1]) was 142 mg/dL, the “Glucose, Mean” value (blood glucose; [1]) was 93 mg/dL and the “Glucose, Median” value (blood glucose; [1]) was 89 mg/dL. The “Glucose, Min” value (blood glucose; [1]) was 71 mg/dL, the “daily blood glucose concentrations, treated vs placebo treated” value (blood glucose; obese or non-obese cats) was “no difference in daily blood glucose concentrations” and the IC50 (plasma DPP-4; cat 1 plasma) was 1.94 nM. It also gave a hillslope (plasma DPP-4; cat 1 plasma) of −0.7518, an IC50 (plasma DPP-4; cat 2 plasma) of 1.45 nM and a hillslope (plasma DPP-4; cat 2 plasma) of −0.7102. The IC50 (plasma DPP-4; cat 3 plasma) was 1.84 nM, the hillslope (plasma DPP-4; cat 3 plasma) was −0.7615 and the “suppression of glucose excursion in OGTT” value (diabetic ZDF rats) was 35%.

Reference: US20140228287A1, “1-[(3-CYANO-PYRIDIN-2-YL)METHYL]-3-METHYL-7-(2-BUTYN-1-YL)-8-[3-(R)-AMINO-PIPERIDIN-1-YL]-AXANTHINE FOR THE TREATMENT OF A METABOLIC DISORDER OF A PREDOMINANTLY CARNIVOROUS NON-HUMAN ANIMAL” (BOEHRINGER INGELHEIM VETMEDICA GMBH, priority 2010, published 2014)
